Test results: PubChem BioAssay (NCI)
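Grown in 96-well plates, cells were treated for 48 hours with each compound at five concentrations. Insufficient inhibition: endpoint recorded as highest concentration tested. GI50 = concentration required for 50% inhibition of growth. TGI is the concentration that stops growth completely.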

How the values were obtained:
Assay in all cases: inhibition of tumour cell growth, NCI panel, 48 h
HCT-116 colon = tested on: HCT-116 colon
NCI-H23 lung = tested on: NCI-H23 lung
MDA-N = tested on: MDA-N
A549 NSCLC = tested on: A549 NSCLC
SF-295 CNS = tested on: SF-295 CNS
CAKI-1 renal = tested on: CAKI-1 renal
K-562 leukemia = tested on: K-562 leukemia
UO-31 renal = tested on: UO-31 renal
SNB-19 CNS = tested on: SNB-19 CNS
COLO 205 colon = tested on: COLO 205 colon

SMILES | TGI (HCT-116 colon) | TGI (NCI-H23 lung) | TGI (MDA-N) | TGI (A549 NSCLC) | TGI (SF-295 CNS) | TGI (CAKI-1 renal) | TGI (K-562 leukemia) | TGI (UO-31 renal) | TGI (SNB-19 CNS) | TGI (COLO 205 colon) | GI50 (HCT-116 colon) | GI50 (NCI-H23 lung) | GI50 (MDA-N) | GI50 (A549 NSCLC) | GI50 (SF-295 CNS) | GI50 (CAKI-1 renal) | GI50 (K-562 leukemia) | GI50 (UO-31 renal) | GI50 (SNB-19 CNS) | GI50 (COLO 205 colon)
Cc1ccc(NC(=O)C(Cc2c[nH]c3ccccc23)NC(=O)Oc2ccccc2)cc1C (stereo not drawn) | > 100 µM | > 100 µM | > 100 µM | > 100 µM | > 100 µM | > 100 µM | > 100 µM | > 100 µM | > 100 µM | > 100 µM |  |  |  |  |  |  |  |  |  | 
CCCC(O)c1cn(C(NC(=O)c2ccccc2)P(=O)(OCC)OCC)nn1 (stereo not drawn) | > 100 µM | > 100 µM | > 100 µM | > 100 µM | > 100 µM | > 100 µM | > 100 µM | > 100 µM | > 100 µM | > 100 µM |  |  |  |  |  |  |  |  |  | 
COC(=O)C1C=CCON2CCc3c(n(C)c4ccccc34)C12 (stereo not drawn) | > 100 µM | > 100 µM |  | > 100 µM | > 100 µM | > 100 µM | > 100 µM | > 100 µM | > 100 µM | > 100 µM |  |  |  |  |  |  |  |  |  | 
COC12CCCN1c1ccn(Cc3ccccc3)c(=O)c1C2=O (stereo not drawn) | > 100 µM | > 100 µM | > 100 µM | > 100 µM | > 100 µM | > 100 µM | > 100 µM | > 100 µM | > 100 µM | > 100 µM |  |  |  |  |  |  |  |  |  | 
Fc1ccc(N=C/C=C/Nc2ccc(F)cc2)cc1 | 18.9 µM | 48.4 µM | 18.5 µM | 21.8 µM | 24.2 µM | 28.2 µM | 22.1 µM | 21 µM | 26.9 µM | 12.5 µM |  |  |  |  |  |  |  |  |  | 
Nc1ccccc1.[C-]#[O+].[C-]#[O+].[C-]#[O+].[C-]#[O+].[C-]#[O+].[Cr] | > 10 µM | > 10 µM | > 10 µM | > 10 µM | > 10 µM | 8.3 µM | > 10 µM | 9.66 µM | > 10 µM | > 10 µM | 2.9 µM | 3.67 µM | 3.53 µM | 5.18 µM | > 10 µM | 2.04 µM | 2.98 µM | 1.86 µM | 6.89 µM | 3.52 µM
COc1cc2oc(=O)cc(C)c2cc1O | > 100 µM | > 100 µM | > 100 µM | > 100 µM | > 100 µM | > 100 µM | > 100 µM | > 100 µM | > 100 µM | > 100 µM |  |  |  |  |  |  |  |  |  | 
COC(=O)C1=C(OC(=O)/C=C/c2ccccc2)C(C(=O)OC)[C@@]2(O)[C@@H](C(=O)OC)[C@H](C)C[C@@H]1[C@@H]2C(=O)OC (stereo partly drawn) | 88.4 µM | 48.8 µM | > 100 µM | 58.4 µM | 79.9 µM | 32.6 µM | > 100 µM | > 100 µM | > 100 µM | 74.8 µM |  |  |  |  |  |  |  |  |  | 
O=c1sc2c(s1)-c1sc(=O)sc1SS2 | > 100 µM | > 60.5 µM | > 100 µM | > 100 µM | > 100 µM | > 100 µM | > 100 µM | > 100 µM | > 100 µM | > 65 µM |  |  |  |  |  |  |  |  |  | 
COc1cc2cc(C(=O)N3CC(CCl)c4c3cc(NC(=O)OCc3ccc([N+](=O)[O-])cc3)c3ccccc43)[nH]c2c(OC)c1OC (stereo not drawn) | > 79.8 µM | > 45.4 µM | > 100 µM | > 100 µM | > 56.2 µM | > 39.4 µM |  | 0.516 µM | > 100 µM | > 100 µM |  |  |  |  |  |  |  |  |  | 
c1ccc(CN[C@]23C4C5CC6C7C5C2C7[C@@](NCc2ccccc2)(C64)N3Cc2ccccc2)cc1 (stereo partly drawn) | > 100 µM | > 100 µM | > 100 µM | > 100 µM | > 100 µM | > 100 µM | > 100 µM | > 100 µM | > 100 µM | > 100 µM |  |  |  |  |  |  |  |  |  | 
CCCCCc1cc2cc3c(c(O)c2c(=O)[nH]1)C1(CCC3)C(O)=c2c(=O)c3c(=O)cc(OC)c(=O)c=3c(=O)c2=C1O (stereo not drawn) | 2.41 µM | 3.37 µM | 3.84 µM | 3.53 µM | 11 µM | 2.8 µM | > 18.7 µM | 1.94 µM | 3.86 µM | 0.564 µM |  |  |  |  |  |  |  |  |  | 
CSC1C(=O)Nc2ccc3ccccc3c21 (stereo not drawn) | 29.9 µM | > 100 µM | > 100 µM | > 100 µM | > 100 µM | 38.9 µM |  | 33.2 µM | > 100 µM | 43.3 µM |  |  |  |  |  |  |  |  |  | 
Cc1c(CCO)c(=O)n2c([nH]c3ccccc32)c1C#N | > 100 µM | > 100 µM |  | > 100 µM | > 100 µM | > 100 µM | > 100 µM | > 100 µM | 91.8 µM | > 100 µM |  |  |  |  |  |  |  |  |  | 
COC(=O)CCc1ccc2c(c1)C(=O)CC2 | > 100 µM | > 100 µM | > 100 µM | > 100 µM | > 100 µM |  | > 100 µM | > 100 µM | > 100 µM |  |  |  |  |  |  |  |  |  |  | 
COc1cc(C2=NNC(=O)c3ccccc3N2c2nc(-c3cccs3)nc3ccc(Br)cc23)cc(OC)c1OC | 26.9 µM | 53.4 µM |  | > 100 µM | 31.7 µM | 73.1 µM |  | > 100 µM | > 100 µM | > 100 µM |  |  |  |  |  |  |  |  |  | 
CCN(CC)c1ccc(N=Nc2ccc([N+](=O)[O-])cc2OC(=O)/C=C/c2ccccc2)c(OC(=O)/C=C/c2ccccc2)c1 | > 100 µM | > 100 µM |  | > 100 µM | > 100 µM | > 100 µM | > 100 µM | > 100 µM | > 100 µM | > 100 µM |  |  |  |  |  |  |  |  |  | 
O=C(CCCCCC(=O)N1CC(CCl)c2ccc([N+](=O)[O-])cc21)N1CC(CCl)c2ccc([N+](=O)[O-])cc21 (stereo not drawn) | > 100 µM | > 100 µM | > 100 µM |  | > 100 µM | > 100 µM | > 100 µM | > 100 µM | > 100 µM | > 100 µM |  |  |  |  |  |  |  |  |  | 
C=C1C(=O)O[C@H]2[C@H]3O[C@@H](C[C@@H]12)[C@@]1(C)CC[C@H](O1)[C@H](C)CCC[C@H]3C | 2.49 µM | 3.18 µM |  | 5.09 µM | 17.4 µM | 2.58 µM | 3.59 µM | 2.9 µM | 21.7 µM | 3.33 µM |  |  |  |  |  |  |  |  |  | 
COc1ccc(NC(=O)CC(=O)n2nc(C)c(N=Nc3cccc(C)c3)c2C)cc1 | > 100 µM | > 100 µM | > 100 µM | > 100 µM | > 100 µM | > 100 µM |  | > 100 µM | > 100 µM | > 100 µM |  |  |  |  |  |  |  |  |  | 
